According to patent publication US20060051358A1, “Immune response assessment method” (Baylor Research Institute, priority 2004, published 2006):

Experiments:
Format in all cases: cell-based, human
[1] = test system: CD4+ / CD8+ T cells in melanoma patient PBMCs; assay: CFSE dilution T cell proliferation assay, melanoma patient PBMCs; settings: epitopes for Th0, Th1, Th2 cells; patient 094-012, Post
[2] = test system: PBMCs obtained from melanoma patients; assay: EPIMAX: PBMC culture with peptides or peptide clusters, multiplex bead cytokine assay (Luminex)
[3] = test system: PBMCs from a patient with Type 1 diabetes; assay: EPIMAX: PBMC culture with IA-2 15-mer peptides, type-1 diabetic patient; settings: fresh PBMCs 5×10^5 cells/well, single 15-mer IA-2 peptides, 48 h
Experimental: FIG. 43 is a graph that depicts the immune response of a type-1 diabetic patient as evaluated according to the present invention. PBMCs were obtained from a patient with Type 1 diabetes taking immunosuppressive drugs, such as Cellcept and Predonisolone. The fresh PBMCs (5×10^5 cells/well) were stimulated with single 15-mer peptides encoding IA-2, one of the auto-antigens specifically expressed on pancreatic β-islet cells. The levels of IP-10 at 48 h of culture are shown.

[4] = test system: CD4+ / CD8+ T cells in melanoma patient PBMCs; assay: CFSE dilution T cell proliferation assay, melanoma patient PBMCs; settings: for proliferation: epitopes for Th0, Th1, Th2 cells
Text: FIG. 13 depicts the immune response of a melanoma patient as evaluated according the present invention. CFSE (5,6-carboxyfluorescein diacetate succinimidyl ester) is a tracer dye that permits to identify the number of cell division with a flowcytometer. As EPIMAX is a non-destructive assay, we combined with EPIMAX and CFSE technology to determine the proliferative capacity of antigen-specific T cells. […] PBMCs obtained from the same melanoma patient (same as FIG. 10) were first stained with 1 uM of CFSE, and stimulated with either clusters of overlapping peptides or individual peptides encoding MART-1. On day 8 of culture, the cells were stained with CD8-PE, CD3-PerCP, and CD4-APC, and analyzed T cell proliferation in response to peptide stimulation.
(§1) FIG. 14 depicts the immune response of a melanoma patient as evaluated according the present invention. PBMCs obtained from the same melanoma patient (same as FIG. 10) were first stained with 1 μM of CFSE, and stimulated with individual peptides encoding MART-1 in triplicates. On day 8 of culture, the cells were stained with CD8-PE, CD3-PerCP, and CD4-APC, and analyzed T cell proliferation in response to peptide stimulation.
as §1, with “FIGS. 21A-B” for “FIG. 14”, “19)” for “10)”, “stimulation. […] FIG. 21B depicts the CFSE-diluted CD4+ T cell populations in response to each MART-1 15-mer peptide within the CD4^+ T cell population.” for “stimulation.”
FIGS. 22 A-C depicts the immune response of a melanoma patient as evaluated according the present invention. PBMCs obtained from a HLA-A2^neg melanoma patient who received DC vaccinations were first stained with 1 μM of CFSE, and stimulated with clusters of peptides encoding NY-ESO1. On day 8 of culture, the cells were stained with CD8-PE, CD3-PerCP, and CD4-APC, and analyzed T cell proliferation in response to peptide stimulation was analyzed based on CFSE dilution with a flowcytometer. […] FIG. 22B depicts the IL-2 levels in the culture supernatant at 48 hours of culture. […] To identify the epitope for CD4+ T cells, CFSE-stained PBMCs were stimulated with individual peptides within NY-ESO1 cluster#8. The proliferating CD4+ T cells were analyzed based on CFSE dilution with a flowcytometer on day 8.

[5] = test system: CFSE-labeled CD4+ T cells and allogeneic mature DCs; assay: Third party MLR suppression assay in transwells; settings: patient's PBMC stimulated with peptide added in transwells
Experimental: (§2) FIGS. 29A-D are graphs that depict the immune response of a melanoma patients as evaluated according the present invention. PBMCs obtained from a melanoma patient were stimulated with clusters of peptides or individual peptides encoding NY-ESO1. IL-10 levels in culture supernatant at 48 hours of culture are shown (FIG. 29A). […] To explore the origin of IL-10 production, the PBMCs were stimulated with peptide#39 in the presence of anti CD28/CD49d mAbs and monensin for 8 hours, and stained with IL-10 specific mAb. […] Next, to evaluate whether this IL-10 producing T cells had regulatory properties, PBMCs stimulated with peptide #39 or irrelevant 15-mer peptide were added in transwells to a “third party” MLR to test suppression of T cell expansion by the release of soluble mediators. The MLR used CFSE-labeled CD4^+T cells and allogeneic mature DCs, both from healthy volunteers, in order to avoid the effect of peptide-specific T cell response.

[6] = test system: T cells in melanoma patient PBMCs; assay: Intracellular cytokine detection assay (flow cytometry)
Experimental: FIG. 12A is a graph that depicts the immune response of a melanoma patient as evaluated according the present invention. PBMCs obtained before DC vaccination and post 8 DC vaccinations from a melanoma patient (same as FIG. 10) were stimulated with single 15-mer MART-1 peptides or diluent. The levels of IL-1a and IP-10 in the culture supernatants at 48 h of culture are shown. […] To examine this hypothesis, we used a different well-established methodology, intracellular cytokine detection assay. The same PBMCs were stimulated for 8 h with MART-1 15-mer single peptides in the presence of anti-CD28/CD49d mAb and monensin. After permeabilization of the cell membrane, the cells were stained with anti-IFN-γ mAb and the IFN-γ+ populations were analyzed with a flowcytometer (FIG. 12B).
The same patient's PBMCs were stimulated for 8 hours with MART-1 15-mer peptide#10 in the presence of antiCD28/CD49d mAb and monensin. The production of IL-2 were analyzed by staining with specific mAbs.
The same patient's PBMCs were stimulated for 8 hours with MART-1 15-mer peptide#11 in the presence of antiCD28/CD49d mAb and monensin. The production of IL-5 were analyzed by staining with specific mAbs.
as §2

[7] = epitopes for Th0, Th1, Th2 cells, patient 094-012, Post

With “gp100 p40: 15-mer of gp100 library, residues 157-171 (GQYWQVLGGPVSGLS; UniProt P40967 157-171, looked up, fragment)” the proliferation [1] was “Yes” and the Type of response [2, 7] was 2.
With “IA-2 peptide#47: 15-mer peptide encoding IA-2, residues 789-803 (HTIADFWQMVWESGC; UniProt Q16849 789-803, looked up, fragment)” the IP-10 production [3] was “induced upregulation of IP-10 production”.
“IA-2 peptide#66: 15-mer peptide encoding IA-2, residues 865-879 (RTLTQFHFLSWPAEG; UniProt Q16849 865-879, looked up, fragment)” was tested, and the IP-10 production [3] was “induced upregulation of IP-10 production”.
In the case of “IA-2 peptide#60: 15-mer peptide encoding IA-2, residues 841-855 (SEHIWCEDFLVRSFY; UniProt Q16849 841-855, looked up, fragment)”, the IP-10 production [3] is reported as “induced upregulation of IP-10 production”.
With “gp100 p152: 15-mer of gp100 library, residues 605-619 (VLMAVVLASLIYRRR; UniProt P40967 605-619, looked up, fragment)” the proliferation [1] was “Yes”, the proliferation ([4]; patient 094-009, Post) was “Yes” and the proliferation ([4]; patient 094-015, Post) was “Yes”. The Type of response ([2]; epitopes for Th0, Th1, Th2 cells, patient 094-009, Post) was 0, the Type of response [2, 7] was 2 and the Type of response ([2]; epitopes for Th0, Th1, Th2 cells, patient 094-015, Post) was 0. The “CD4+ T cell epitope identification (cytokines at 48 h, CFSE dilution day 8)” value ([2]; two melanoma patients, peptides of TRP-1 cluster#25 or gp100 cluster#15) was “are epitopes for CD4^+ T cells”.
With “IA-2 peptide#64: 15-mer peptide encoding IA-2, residues 857-871 (KNVQTQETRTLTQFH; UniProt Q16849 857-871, looked up, fragment)” the IP-10 production [3] was “induced upregulation of IP-10 production”.
With “NY-ESO1 p39: 15-mer of NY-ESO1 library, residues 153-167 (LQQLSLLMWITQCFL; UniProt P78358 153-167, looked up, fragment)” the Type of response ([2]; epitopes for CD8+ T cells, patient 094-007, Post) was 1, the Type of response ([2]; epitopes for CD8+ T cells, patient 094-007, Pre) was 1 and the “proliferation in third party MLR” value [5] was “significantly suppressed proliferation in the MLR”. For the same substance, the “CD4+ T cells producing IL-10” value ([6]; 8 hours with anti CD28/CD49d mAbs and monensin) was “about 0.11%”.
With “gp100 p32: 15-mer of gp100 library, residues 125-139 (ETDDACIFPDGGPCP; UniProt P40967 125-139, looked up, fragment)” the proliferation [1] was “Yes” and the Type of response [2, 7] was 2.
For “IA-2 peptide#62: 15-mer peptide encoding IA-2, residues 849-863 (FLVRSFYLKNVQTQE; UniProt Q16849 849-863, looked up, fragment)”, the IP-10 production [3] was “induced upregulation of IP-10 production”.
For “gp100 p78: 15-mer of gp100 library, residues 309-323 (TTDGHRPTAEAPNTT; UniProt P40967 309-323, looked up, fragment)”, the proliferation [1] was “Yes” and the Type of response [2, 7] was 2.
In the case of “IA-2 peptide#61: 15-mer peptide encoding IA-2, residues 845-859 (WCEDFLVRSFYLKNV; UniProt Q16849 845-859, looked up, fragment)”, the IP-10 production [3] is reported as “induced upregulation of IP-10 production”.
“MART-1 p13: 15-mer of MART-1 overlapping peptide library, residues 49-63 (RRRNGYRALMDKSLH; UniProt Q16655 49-63, looked up, fragment)” was tested, and the “CD8+ T cell proliferation (CFSE dilution)” value ([4]; same patient as FIG. 10, day 8 of culture) was “induced dilution of CFSE intensity in some CD8+ T cell populations”, the Type of response ([2]; epitopes for CD8+ T cells, patient 094-009, Post) was 1 and the “IL-1a and IP-10 levels; cluster analysis and epitope focusing” value ([2]; melanoma patient after DC vaccination series (FIG. 10), MART-1 library, 48 h) was “identified as epitopes for specific T cells”. The “IL-1a and IP-10 levels” value ([2]; same patient as FIG. 10, Post-PBMC (post 8 DC vaccinations), 48 h) was “showed upregulation of IL-1a and IP-10”, the “IL-1a and IP-10 levels” value ([2]; same patient as FIG. 10, Pre-PBMC (before DC vaccination), 48 h) was “failed upregulation of IL-1a and IP-10” and the “IL-1a and IP-10 levels, reproducibility” value ([2]; same patient as FIG. 10, thawed PBMC, experiment repeated three times, 48 h) was “Three out of 3 experiments revealed upregulation of IL-1a and IP-10”. For the same substance, the “CD8+ T cells producing IFN-g” value ([6]; Post-PBMC, 8 h stimulation with anti-CD28/CD49d mAb and monensin) was “about 0.15%” and the “IFN-g production by CD8+ T cells” value ([6]; Pre-PBMC, 8 h stimulation with anti-CD28/CD49d mAb and monensin) was “no IFN-g production was detected”.
For “gp100 p71: 15-mer of gp100 library, residues 281-295 (LEPGPVTAQVVLQAA; UniProt P40967 281-295, looked up, fragment)”, the proliferation [1] was “Yes” and the Type of response [2, 7] was 2.
